Results as given in PubChem BioAssay (NCI).
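Step 1: Grow cells in 96-well plates. Step 2: Expose to compound for 48 hours at 5 concentrations. Step 3: Interpolate endpoints linearly; if unreached, use highest concentration. TGI is the concentration that stops growth completely.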

Tests used:
Assay in all cases: NCI-60 cell line screen, 48 h
[1] = system: DU-145 prostate
[2] = system: MCF7 breast
[3] = system: SK-MEL-28 melanoma
[4] = system: OVCAR-8 ovarian
[5] = system: SF-295 CNS
[6] = system: UACC-257 melanoma
[7] = system: SN12C renal
[8] = system: OVCAR-5 ovarian
[9] = system: CAKI-1 renal
[10] = system: HOP-62 NSCLC
[11] = system: OVCAR-4 ovarian
[12] = system: PC-3 prostate
[13] = system: HL-60(TB) leukemia
[14] = system: KM12 colon
[15] = system: SNB-19 CNS
[16] = system: RXF 393 renal
[17] = system: HCC-2998 colon

CCCCC(=O)/C=c1/cc(C)[nH]c2cccc3cnn1c32
TGI [1]: > 100 µM | TGI [2]: > 100 µM | TGI [3]: > 100 µM | TGI [4]: > 100 µM | TGI [5]: > 100 µM | TGI [6]: > 100 µM | TGI [7]: > 100 µM | TGI [8]: > 100 µM | TGI [9]: > 100 µM | TGI [10]: > 100 µM | TGI [11]: > 100 µM | TGI [12]: > 100 µM | TGI [13]: > 100 µM | TGI [14]: > 100 µM | TGI [15]: > 100 µM

CN1CCC2(c3ccccc3)CC(=O)/C(=C/c3ccc(Cl)c(Cl)c3)C1C2 (stereo not drawn)
TGI [1]: 11.9 µM | TGI [2]: 17.3 µM | TGI [3]: 5.59 µM | TGI [4]: 4.64 µM | TGI [5]: 6.52 µM | TGI [6]: 23.3 µM | TGI [7]: 3.72 µM | TGI [8]: 6.37 µM | TGI [9]: 13.8 µM | TGI [16]: 7.07 µM | TGI [10]: 12.3 µM | TGI [11]: 7.21 µM | TGI [12]: 4.52 µM | TGI [13]: 3.46 µM | TGI [14]: 4.14 µM | TGI [15]: 5.32 µM

CNc1cc([N+](=O)[O-])ccc1C(=O)N1CCC[C@H]1CO
TGI [1]: > 100 µM | TGI [2]: > 100 µM | TGI [3]: > 100 µM | TGI [4]: > 100 µM | TGI [5]: > 100 µM | TGI [6]: > 100 µM | TGI [7]: > 100 µM | TGI [8]: > 100 µM | TGI [10]: > 100 µM | TGI [12]: > 100 µM | TGI [13]: > 100 µM | TGI [14]: > 100 µM | TGI [15]: > 100 µM

C/C(=C\COP(=O)(O)OP(=O)(O)O)CCCCCCOCc1ccccc1
TGI [1]: > 100 µM | TGI [2]: > 100 µM | TGI [3]: > 100 µM | TGI [4]: > 100 µM | TGI [5]: > 100 µM | TGI [6]: > 100 µM | TGI [7]: > 100 µM | TGI [8]: > 100 µM | TGI [9]: > 100 µM | TGI [16]: > 100 µM | TGI [10]: > 100 µM | TGI [11]: > 100 µM | TGI [13]: > 100 µM | TGI [14]: > 100 µM | TGI [15]: > 100 µM | TGI [17]: > 100 µM

Clc1cccc(-c2nc3cccc4c3n2Cc2ncccc2-4)c1
TGI [1]: > 100 µM | TGI [2]: > 100 µM | TGI [3]: > 100 µM | TGI [4]: > 100 µM | TGI [5]: > 100 µM | TGI [6]: > 100 µM | TGI [7]: > 100 µM | TGI [8]: > 100 µM | TGI [9]: > 100 µM | TGI [16]: > 100 µM | TGI [10]: > 100 µM | TGI [11]: > 100 µM | TGI [12]: > 100 µM | TGI [14]: > 100 µM | TGI [15]: > 100 µM | TGI [17]: > 100 µM

COC(=O)c1cc(CC2Cc3cc4c(cc3C2=O)CCC4)cc2c1CCC2 (stereo not drawn)
TGI [1]: > 100 µM | TGI [2]: > 100 µM | TGI [3]: > 100 µM | TGI [4]: > 100 µM | TGI [5]: > 100 µM | TGI [6]: > 100 µM | TGI [7]: > 100 µM | TGI [8]: > 100 µM | TGI [9]: > 100 µM | TGI [10]: > 100 µM | TGI [11]: > 100 µM | TGI [12]: > 100 µM | TGI [13]: > 100 µM | TGI [14]: > 100 µM | TGI [15]: > 100 µM | TGI [17]: > 100 µM

S=C1NC2=C(CSC/C2=C\c2ccc(Cl)cc2)C(c2ccc(Cl)cc2)N1 (stereo not drawn)
TGI [1]: > 100 µM | TGI [2]: > 100 µM | TGI [3]: > 100 µM | TGI [4]: > 100 µM | TGI [5]: > 100 µM | TGI [6]: > 100 µM | TGI [7]: > 100 µM | TGI [8]: > 100 µM | TGI [9]: > 100 µM | TGI [10]: > 100 µM | TGI [11]: > 100 µM | TGI [12]: > 100 µM | TGI [13]: 70.7 µM | TGI [14]: > 100 µM | TGI [15]: > 100 µM | TGI [17]: 77.6 µM

COc1cc(S(=O)(=O)Nc2ccc(-c3csc(N4C(=O)C(C)SC4c4cccs4)n3)cc2)ccc1Cl (stereo not drawn)
TGI [1]: 53.1 µM | TGI [2]: > 100 µM | TGI [3]: 69 µM | TGI [4]: > 100 µM | TGI [5]: > 100 µM | TGI [7]: > 100 µM | TGI [8]: > 100 µM | TGI [9]: > 100 µM | TGI [16]: 31.1 µM | TGI [10]: > 100 µM | TGI [12]: > 100 µM | TGI [13]: 41.7 µM | TGI [14]: 23 µM

COc1ccc(-c2sc(Br)c3c2C(=O)C2OC(=O)NC32)cc1OC (stereo not drawn)
TGI [1]: > 100 µM | TGI [2]: > 100 µM | TGI [4]: > 100 µM | TGI [5]: > 100 µM | TGI [6]: > 100 µM | TGI [7]: > 100 µM | TGI [8]: > 100 µM | TGI [9]: > 100 µM | TGI [16]: > 100 µM | TGI [10]: > 100 µM | TGI [11]: > 100 µM | TGI [12]: > 100 µM | TGI [13]: > 100 µM | TGI [14]: > 100 µM | TGI [15]: > 100 µM

CCOC(=O)C1=C(C)N(c2ccc(Cl)cc2)C2(O)C=CC(=O)C3=C(O)c4ccccc4C(=O)C312 (stereo not drawn)
TGI [1]: 21.1 µM | TGI [2]: 8.72 µM | TGI [4]: 19.1 µM | TGI [5]: 22.4 µM | TGI [6]: 42.7 µM | TGI [7]: 13.5 µM | TGI [8]: 30.7 µM | TGI [9]: 9.21 µM | TGI [10]: 18.9 µM | TGI [11]: 8.33 µM | TGI [12]: 15.8 µM | TGI [13]: 5.77 µM | TGI [14]: 20.4 µM | TGI [15]: 33.1 µM

Cc1ccc(N2C(=O)C3c4[nH]c5ccc(C)cc5c4C4CCC(C(C)(C)C)CC4C3C2=O)cc1 (stereo not drawn)
TGI [1]: 62 µM | TGI [2]: 28.7 µM | TGI [3]: 90.6 µM | TGI [4]: 24.4 µM | TGI [5]: 40.7 µM | TGI [6]: > 100 µM | TGI [7]: 27.3 µM | TGI [8]: 30.8 µM | TGI [9]: 45.3 µM | TGI [10]: 24.5 µM | TGI [11]: 20.9 µM | TGI [12]: 70.3 µM | TGI [13]: 82.8 µM | TGI [14]: 62.4 µM | TGI [15]: 80.5 µM

Cc1ccc(Sc2ccccc2C23OC(C)(C4C(=O)N(c5ccccc5)C(=O)C42)N(C)C3=O)cc1 (stereo not drawn)
TGI [1]: > 100 µM | TGI [3]: > 100 µM | TGI [4]: > 100 µM | TGI [5]: > 100 µM | TGI [6]: > 100 µM | TGI [7]: > 100 µM | TGI [8]: > 100 µM | TGI [9]: > 100 µM | TGI [16]: > 100 µM | TGI [11]: > 100 µM | TGI [12]: > 100 µM | TGI [13]: > 100 µM | TGI [14]: > 100 µM | TGI [15]: > 100 µM

CC(C)(C)OC(=O)N(O)[C@@H]1CC[C@H](n2cnc3c(N)ncnc32)C1
TGI [1]: > 100 µM | TGI [2]: > 100 µM | TGI [3]: > 100 µM | TGI [4]: > 100 µM | TGI [5]: > 100 µM | TGI [6]: > 100 µM | TGI [7]: > 100 µM | TGI [8]: > 100 µM | TGI [16]: > 100 µM | TGI [10]: > 100 µM | TGI [11]: > 100 µM | TGI [12]: > 100 µM | TGI [14]: > 100 µM | TGI [15]: > 100 µM | TGI [17]: > 100 µM

CCOC(=O)[C@@H]1[C@@H](c2ccccc2)N(C)O[C@@]1(c1ccccc1)C(F)(F)F
TGI [1]: > 100 µM | TGI [3]: > 100 µM | TGI [4]: > 100 µM | TGI [5]: > 100 µM | TGI [6]: > 100 µM | TGI [7]: > 100 µM | TGI [8]: > 100 µM | TGI [9]: > 100 µM | TGI [16]: > 100 µM | TGI [10]: > 100 µM | TGI [11]: > 100 µM | TGI [12]: > 100 µM | TGI [14]: > 100 µM | TGI [15]: > 100 µM
